Laboratory results taken from ChEMBL document CHEMBL1129900, “Synthesis and biological evaluation of 1-hydroxy-25(R and S)-25,26-Epoxy-23-yne vitamin D3 and of 1,25(R and S),26-Trihydroxy-23-yne vitamin D3” (1997).

Legend:
[1] = molecular target: T1, Vitamin D3 receptor (Sus scrofa) (UniProt A3RGC1); assay: Affinity for pig intestinal mucosa Vitamin D3 receptor (VDR); assay type: tissue-based
T1 sequence (whole entry): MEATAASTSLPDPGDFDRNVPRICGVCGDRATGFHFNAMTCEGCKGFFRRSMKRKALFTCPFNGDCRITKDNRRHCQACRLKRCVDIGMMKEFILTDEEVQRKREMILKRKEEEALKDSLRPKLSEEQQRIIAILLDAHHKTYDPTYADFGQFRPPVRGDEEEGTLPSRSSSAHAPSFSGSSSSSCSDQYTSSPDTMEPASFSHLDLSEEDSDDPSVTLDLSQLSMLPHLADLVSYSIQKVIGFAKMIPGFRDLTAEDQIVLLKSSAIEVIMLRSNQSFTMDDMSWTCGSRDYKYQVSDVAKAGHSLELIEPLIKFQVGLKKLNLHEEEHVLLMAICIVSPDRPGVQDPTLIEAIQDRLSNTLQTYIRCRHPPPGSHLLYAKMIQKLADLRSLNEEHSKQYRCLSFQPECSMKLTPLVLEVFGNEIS

[2] = molecular target: T2, Vitamin D3 receptor (Homo sapiens) (UniProt P11473); assay: Relative affinity compared to Calcitriol in displacement of [3H]1H]1-alpha,25(OH)2D3 from vitamin D3 receptor in HL-60 cells; assay type: cell-based
T2 sequence (whole entry): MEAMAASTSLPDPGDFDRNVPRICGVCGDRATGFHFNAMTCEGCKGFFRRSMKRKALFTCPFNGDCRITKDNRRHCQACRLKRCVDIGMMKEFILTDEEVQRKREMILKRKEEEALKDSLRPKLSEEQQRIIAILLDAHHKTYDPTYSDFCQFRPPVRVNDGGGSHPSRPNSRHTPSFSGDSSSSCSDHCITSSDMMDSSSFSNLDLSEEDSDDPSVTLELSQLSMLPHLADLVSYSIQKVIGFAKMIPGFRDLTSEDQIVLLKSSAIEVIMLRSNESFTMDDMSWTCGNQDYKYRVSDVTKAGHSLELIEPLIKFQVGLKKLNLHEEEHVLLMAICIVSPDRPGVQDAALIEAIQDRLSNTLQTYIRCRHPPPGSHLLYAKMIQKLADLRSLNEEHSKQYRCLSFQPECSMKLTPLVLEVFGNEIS

Mus musculus = assay: In vivo calcemic effect was tested in vitamin D replete normal […] mice by measuring calcium levels in serum; assay type: functional
[3] = molecular target: T2, Vitamin D3 receptor (Homo sapiens); assay: Relative affinity compared to Calcitriol in displacement of [3H]1H]1-alpha,25(OH)2D3 from vitamin D3 receptor in […] cells; assay type: cell-based
[4] = molecular target: T2, Vitamin D3 receptor (Homo sapiens); assay: Relative affinity compared to Calcitriol in displacement of [3H]1H]1-alpha,25(OH)2D3 from Vitamin D3 receptor in Keratinocyte cell lines
[5] = molecular target: T2, Vitamin D3 receptor (Homo sapiens); assay: Relative affinity compared to Calcitriol in displacement of [3H]1H]1-alpha,25(OH)2D3 from vitamin D receptor (VDR) in […] cells; assay type: cell-based
[6] = molecular target: T1, Vitamin D3 receptor (Sus scrofa); assay: Affinity for pig intestinal mucosa vitamin D receptor (VDR)
[7] = molecular target: T2, Vitamin D3 receptor (Homo sapiens); assay: Relative affinity compared to Calcitriol in displacement of [3H]1H]1-alpha,25(OH)2D3 from vitamin D receptor (VDR) in HL-60 cells; assay type: functional, cell-based
[8] = molecular target: T2, Vitamin D3 receptor (Homo sapiens); assay: Relative affinity compared to Calcitriol in displacement of [3H]1H]1-alpha,25(OH)2D3 from vitamin receptor (VDR) in keratinocyte cells; assay type: functional, cell-based

Structure (SMILES)	Activity [1]	Activity [2]	Activity [3]	Activity [4]	Activity [5]	Activity [6]	Activity [7]	Activity [8]	Activity (Mus musculus)
C=C1/C(=C/C=C2/CCC[C@]3(C)[C@@H]([C@H](C)CC#C[C@](C)(O)CO)CC[C@@H]23)C[C@@H](O)C[C@@H]1O	70	150%	150%	250%	–	–	–	–	0.7
C=C1/C(=C/C=C2/CCC[C@]3(C)[C@@H]([C@H](C)CC#C[C@@](C)(O)CO)CC[C@@H]23)C[C@@H](O)C[C@@H]1O	80	150%	150%	250%	–	–	–	–	0.1

Second part, led by results:

Activity [1]	Activity [2]	Activity [3]	Activity [4]	Activity [5]	Activity [6]	Activity [7]	Activity [8]	Structure (SMILES)	Activity (Mus musculus)
70	150%	150%	250%	–	–	–	–	C=C1/C(=C/C=C2/CCC[C@]3(C)[C@@H]([C@H](C)CC#CC4(C)CO4)CC[C@@H]23)C[C@@H](O)C[C@@H]1O (stereo not given in full)	0.25
60	150%	150%	250%	–	–	–	–	C=C1/C(=C/C=C2/CCC[C@]3(C)[C@@H]([C@H](C)CC#C[C@@]4(C)CO4)CC[C@@H]23)C[C@@H](O)C[C@@H]1O	0.3
–	–	–	–	150%	75	150%	250%	C=C1/C(=C/C=C2/CCC[C@]3(C)[C@@H]([C@H](C)CC#C[C@]4(C)CO4)CC[C@@H]23)C[C@@H](O)C[C@@H]1O	0.2
